Laboratory results reported in patent publication US9695155B2, “Herbicidal substituted pyrimidinyloxy benzene compounds” (E. I. DU PONT DE NEMOURS AND COMPANY, priority 2013, dated 2017).

Legend:
ducksalad = assay: Test C flooded paddy test; type: in vivo, Heteranthera limosa; conditions: Flood, scale 0 to 100 (0 no effect, 100 complete control), 13 to 15 days
Procedure, shortened: (§1)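 Test compounds are applied straight into paddy water held 3 cm above the soil surface, with that flood maintained for the whole test. After 13 to 15 days in the greenhouse, each species is scored visually relative to controls.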

surinam grass = assay: Test E preemergence; type: in vivo, Brachiaria decumbens; conditions: for Surinam Grass plant response rating: scale 0 to 100 (0 no effect, 100 complete control); for Plant response rating, Surinam Grass: scale 0 to 100, 0 no effect, 100 complete control
Procedure, shortened: (§2)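 Compound in a non-phytotoxic solvent mixture with surfactant was applied preemergence to seeds in silt loam soil, or postemergence to plants 2 to 18 cm tall grown in peat-based potting medium. Plants were kept in a greenhouse for 14 to 21 days, then rated visually against untreated controls on a 0 (no effect) to 100 (complete control) scale.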

waterhemp = assay: Test E preemergence; type: in vivo, Amaranthus rudis; conditions: for Waterhemp plant response rating: scale 0 to 100 (0 no effect, 100 complete control); for Plant response rating, Waterhemp: scale 0 to 100, 0 no effect, 100 complete control
Procedure, shortened: as §2

giant foxtail = assay: Test E preemergence; type: in vivo, Setaria faberii; conditions: for Foxtail, Giant plant response rating: scale 0 to 100 (0 no effect, 100 complete control); for Plant response rating, Foxtail, Giant: scale 0 to 100, 0 no effect, 100 complete control
Procedure, shortened: as §2

Italian ryegrass = assay: Test E preemergence; type: in vivo, Lolium multiflorum; conditions: for Ryegrass, Italian plant response rating: scale 0 to 100 (0 no effect, 100 complete control); for Plant response rating, Ryegrass, Italian: scale 0 to 100, 0 no effect, 100 complete control
Procedure, shortened: as §2

lambsquarters = assay: Test E preemergence; type: in vivo, Chenopodium album; conditions: for Lambsquarters plant response rating: scale 0 to 100 (0 no effect, 100 complete control); for Plant response rating, Lambsquarters: scale 0 to 100, 0 no effect, 100 complete control
Procedure, shortened: as §2

sandbur = assay: Test E preemergence; type: in vivo, Cenchrus echinatus; conditions: for Sandbur plant response rating: scale 0 to 100 (0 no effect, 100 complete control); for Plant response rating, Sandbur: scale 0 to 100, 0 no effect, 100 complete control
Procedure, shortened: as §2

corn = assay: Test E preemergence; type: in vivo, Zea mays; conditions: for Corn plant response rating: scale 0 to 100 (0 no effect, 100 complete control); for Plant response rating, Corn: scale 0 to 100, 0 no effect, 100 complete control
Procedure, shortened: as §2

barnyardgrass = assay: Test C flooded paddy test; type: in vivo, Echinochloa crus-galli; conditions: Flood, scale 0 to 100 (0 no effect, 100 complete control), 13 to 15 days
Procedure, shortened: as §1

morningglory = assay: Test E preemergence; type: in vivo, Ipomoea coccinea; conditions: for Morningglory plant response rating: scale 0 to 100 (0 no effect, 100 complete control); for Plant response rating, Morningglory: scale 0 to 100, 0 no effect, 100 complete control
Procedure, shortened: as §2

fall panicum = assay: Test E preemergence; type: in vivo, Panicum dichotomiflorum; conditions: for Panicum, Fall plant response rating: scale 0 to 100 (0 no effect, 100 complete control); for Plant response rating, Panicum, Fall: scale 0 to 100, 0 no effect, 100 complete control
Procedure, shortened: as §2

goosegrass = assay: Test E preemergence; type: in vivo, Eleusine indica; conditions: for Goosegrass plant response rating: scale 0 to 100 (0 no effect, 100 complete control); for Plant response rating, Goosegrass: scale 0 to 100, 0 no effect, 100 complete control
Procedure, shortened: as §2

soybean = assay: Test E preemergence; type: in vivo, Glycine max; conditions: for Soybean plant response rating: scale 0 to 100 (0 no effect, 100 complete control); for Plant response rating, Soybean: scale 0 to 100, 0 no effect, 100 complete control
Procedure, shortened: as §2

palmer pigweed = assay: Test E preemergence; type: in vivo, Amaranthus palmeri; conditions: for Pigweed, Palmer plant response rating: scale 0 to 100 (0 no effect, 100 complete control); for Plant response rating, Pigweed, Palmer: scale 0 to 100, 0 no effect, 100 complete control
Procedure, shortened: as §2

`N#Cc1cccc(Oc2ncc(Br)cn2)c1-n1cc(C(F)(F)F)cn1` [Compound 59, 3-[(5-bromo-2-pyrimidinyl)oxy]-2-[4-(trifluoromethyl)-1H-pyrazol-1-yl]benzonitrile] was tested. Which “Plant response rating, Ducksalad” value (ducksalad; 31 g ai/ha) did it give?
The value was 50.

What about the “Plant response rating, Ducksalad” value (ducksalad; 62 g ai/ha) of the same compound?
Its value is 75.

And the “Plant response rating, Ducksalad” value (ducksalad; 125 g ai/ha)?
The value was 95.

And the “Plant response rating, Ducksalad” value (ducksalad; 250 g ai/ha)?
Its value is 95.

What about the “Surinam Grass plant response rating” value (surinam grass; 16 g ai/ha) of the same compound?
Its value is 0.

What about the “Surinam Grass plant response rating” value (surinam grass; 31 g ai/ha) of the same compound?
The value was 0.

And the “Surinam Grass plant response rating” value (surinam grass; 62 g ai/ha)?
Its value is 5.

What about the “Plant response rating, Surinam Grass” value (surinam grass; 125 g ai/ha) of the same compound?
The value was 20.

What about the “Plant response rating, Surinam Grass” value (surinam grass; 250 g ai/ha) of the same compound?
The value was 65.

And the “Waterhemp plant response rating” value (waterhemp; 16 g ai/ha)?
Its value is 100.

What about the “Waterhemp plant response rating” value (waterhemp; 31 g ai/ha) of the same compound?
Its value is 100.

And the “Waterhemp plant response rating” value (waterhemp; 62 g ai/ha)?
Its value is 100.

And the “Plant response rating, Waterhemp” value (waterhemp; 125 g ai/ha)?
The value was 100.

What about the “Plant response rating, Waterhemp” value (waterhemp; 250 g ai/ha) of the same compound?
The value was 100.

What about the “Foxtail, Giant plant response rating” value (giant foxtail; 16 g ai/ha) of the same compound?
The value was 5.

And the “Foxtail, Giant plant response rating” value (giant foxtail; 31 g ai/ha)?
Its value is 10.

And the “Foxtail, Giant plant response rating” value (giant foxtail; 62 g ai/ha)?
Its value is 85.

What about the “Plant response rating, Foxtail, Giant” value (giant foxtail; 125 g ai/ha) of the same compound?
The value was 100.

And the “Plant response rating, Foxtail, Giant” value (giant foxtail; 250 g ai/ha)?
The value was 100.

And the “Ryegrass, Italian plant response rating” value (Italian ryegrass; 16 g ai/ha)?
The value was 0.

What about the “Ryegrass, Italian plant response rating” value (Italian ryegrass; 31 g ai/ha) of the same compound?
Its value is 0.

And the “Ryegrass, Italian plant response rating” value (Italian ryegrass; 62 g ai/ha)?
Its value is 50.

What about the “Plant response rating, Ryegrass, Italian” value (Italian ryegrass; 125 g ai/ha) of the same compound?
The value was 75.

And the “Plant response rating, Ryegrass, Italian” value (Italian ryegrass; 250 g ai/ha)?
The value was 95.

What about the “Lambsquarters plant response rating” value (lambsquarters; 16 g ai/ha) of the same compound?
The value was 98.

What about the “Lambsquarters plant response rating” value (lambsquarters; 31 g ai/ha) of the same compound?
The value was 98.

What about the “Lambsquarters plant response rating” value (lambsquarters; 62 g ai/ha) of the same compound?
Its value is 100.

What about the “Plant response rating, Lambsquarters” value (lambsquarters; 125 g ai/ha) of the same compound?
Its value is 100.

What about the “Plant response rating, Lambsquarters” value (lambsquarters; 250 g ai/ha) of the same compound?
Its value is 100.

What about the “Sandbur plant response rating” value (sandbur; 16 g ai/ha) of the same compound?
The value was 0.

What about the “Sandbur plant response rating” value (sandbur; 31 g ai/ha) of the same compound?
Its value is 15.

And the “Sandbur plant response rating” value (sandbur; 62 g ai/ha)?
The value was 30.

And the “Plant response rating, Sandbur” value (sandbur; 125 g ai/ha)?
The value was 50.

And the “Plant response rating, Sandbur” value (sandbur; 250 g ai/ha)?
Its value is 95.

What about the “Corn plant response rating” value (corn; 16 g ai/ha) of the same compound?
Its value is 0.

What about the “Corn plant response rating” value (corn; 31 g ai/ha) of the same compound?
The value was 0.

What about the “Corn plant response rating” value (corn; 62 g ai/ha) of the same compound?
Its value is 0.

What about the “Plant response rating, Corn” value (corn; 125 g ai/ha) of the same compound?
Its value is 30.

And the “Plant response rating, Corn” value (corn; 250 g ai/ha)?
Its value is 50.

And the “Plant response rating, Barnyardgrass” value (barnyardgrass; 31 g ai/ha)?
The value was 0.

What about the “Plant response rating, Barnyardgrass” value (barnyardgrass; 62 g ai/ha) of the same compound?
Its value is 0.

And the “Plant response rating, Barnyardgrass” value (barnyardgrass; 125 g ai/ha)?
Its value is 30.

And the “Plant response rating, Barnyardgrass” value (barnyardgrass; 250 g ai/ha)?
The value was 40.

What about the “Morningglory plant response rating” value (morningglory; 16 g ai/ha) of the same compound?
The value was 0.

What about the “Morningglory plant response rating” value (morningglory; 31 g ai/ha) of the same compound?
Its value is 15.

What about the “Morningglory plant response rating” value (morningglory; 62 g ai/ha) of the same compound?
Its value is 65.

What about the “Plant response rating, Morningglory” value (morningglory; 125 g ai/ha) of the same compound?
The value was 75.

What about the “Plant response rating, Morningglory” value (morningglory; 250 g ai/ha) of the same compound?
The value was 100.

What about the “Panicum, Fall plant response rating” value (fall panicum; 16 g ai/ha) of the same compound?
The value was 50.

What about the “Panicum, Fall plant response rating” value (fall panicum; 31 g ai/ha) of the same compound?
Its value is 75.

What about the “Panicum, Fall plant response rating” value (fall panicum; 62 g ai/ha) of the same compound?
Its value is 98.

What about the “Plant response rating, Panicum, Fall” value (fall panicum; 125 g ai/ha) of the same compound?
The value was 100.

And the “Plant response rating, Panicum, Fall” value (fall panicum; 250 g ai/ha)?
Its value is 100.

And the “Goosegrass plant response rating” value (goosegrass; 16 g ai/ha)?
The value was 15.

And the “Goosegrass plant response rating” value (goosegrass; 31 g ai/ha)?
Its value is 25.

And the “Goosegrass plant response rating” value (goosegrass; 62 g ai/ha)?
The value was 65.

And the “Plant response rating, Goosegrass” value (goosegrass; 125 g ai/ha)?
The value was 98.

What about the “Plant response rating, Goosegrass” value (goosegrass; 250 g ai/ha) of the same compound?
The value was 98.

And the “Soybean plant response rating” value (soybean; 16 g ai/ha)?
Its value is 0.

And the “Soybean plant response rating” value (soybean; 31 g ai/ha)?
The value was 0.

And the “Plant response rating, Soybean” value (soybean; 125 g ai/ha)?
The value was 50.

And the “Plant response rating, Soybean” value (soybean; 250 g ai/ha)?
The value was 95.

And the “Pigweed, Palmer plant response rating” value (palmer pigweed; 16 g ai/ha)?
Its value is 35.

What about the “Pigweed, Palmer plant response rating” value (palmer pigweed; 31 g ai/ha) of the same compound?
The value was 100.

What about the “Pigweed, Palmer plant response rating” value (palmer pigweed; 62 g ai/ha) of the same compound?
Its value is 100.

And the “Plant response rating, Pigweed, Palmer” value (palmer pigweed; 125 g ai/ha)?
The value was 100.

And the “Plant response rating, Pigweed, Palmer” value (palmer pigweed; 250 g ai/ha)?
The value was 100.
